From US7790706B2, “Treatment of inflammation with 5α reduced metabolites” (The University of Edinburgh, priority 2002, dated 2010)
“Also recorded” adds a separate entry of the source.

Tests used:
[1] = target: T1, glucocorticoid receptor (GR) (Homo sapiens, UniProt P04150); assay: GR activation reporter: Hela cells transfected with GR and MMTV-luciferase; assay type: cell-based; conditions: for Induction of luciferase (GR activation), Example 5 / luciferase induction in response to activation of GR / luciferase induction in cells without GR: 1 micromol/l; for luciferase induction in response to activation of GR: Hela cells transfected with GR and MMTV-luciferase; for luciferase induction in cells without GR: Hela cells transfected with luciferase but without GR
T1 construct: expressed in transfected cells; host or cells: HeLa cells
T1 sequence (P04150 1-777): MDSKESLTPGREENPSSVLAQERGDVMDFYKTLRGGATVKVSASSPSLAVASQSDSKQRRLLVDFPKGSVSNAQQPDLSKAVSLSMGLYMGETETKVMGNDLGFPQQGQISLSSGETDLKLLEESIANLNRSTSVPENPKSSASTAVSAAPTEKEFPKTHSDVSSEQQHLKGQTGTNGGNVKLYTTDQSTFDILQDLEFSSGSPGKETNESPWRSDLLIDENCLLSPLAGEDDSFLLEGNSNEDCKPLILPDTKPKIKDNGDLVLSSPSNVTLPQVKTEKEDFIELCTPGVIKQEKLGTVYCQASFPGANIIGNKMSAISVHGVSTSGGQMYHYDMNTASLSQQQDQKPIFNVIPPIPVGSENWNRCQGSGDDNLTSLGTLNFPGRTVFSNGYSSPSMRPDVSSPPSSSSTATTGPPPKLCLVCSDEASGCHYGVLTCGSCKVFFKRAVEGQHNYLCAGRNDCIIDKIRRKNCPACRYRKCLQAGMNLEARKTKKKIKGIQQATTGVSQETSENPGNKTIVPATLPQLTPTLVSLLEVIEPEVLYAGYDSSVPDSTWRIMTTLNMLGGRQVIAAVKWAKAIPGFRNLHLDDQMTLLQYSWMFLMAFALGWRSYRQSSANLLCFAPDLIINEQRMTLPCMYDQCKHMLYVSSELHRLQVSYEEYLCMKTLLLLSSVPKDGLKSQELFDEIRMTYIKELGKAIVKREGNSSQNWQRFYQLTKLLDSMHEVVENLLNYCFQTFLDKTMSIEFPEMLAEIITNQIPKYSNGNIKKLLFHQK
Procedure: Comparative potency Fold induction of luciferase activity as a consequence of GR activation in Hela cells transfected with GR and luciferase under the control of a GRE and MMTV promoter (n=3). All steroids at 1 μM. Dex=dexamethasone; B=corticosterone; αDHB=5α-dihydrocorticosterone; αTHB=5α-tetrahydrocorticosterone; βDHB=5β-dihydrocorticosterone; βTHB=5β-tetrahydrocorticosterone. *indicates p<0.05 and ***p<0.001 in comparison with corticosterone. 5α-reduced metabolites of corticosterone activate glucocorticoid receptors with similar potency as corticosterone (B). […] 5β-reduced metabolites have no effect.
Dose response. Fold induction of luciferase activity as a consequence of GR activation in Hela cells transfected with GR and luciferase under the control of a GRE and MMTV promoter (n=3).
Corticosterone (B) and 5α-tetrahydrocorticosterone (5αTHB) or vehicle (LTR) were added to the medium (with final steroid concentrations of 1 micromol/l) of Hela cells transfected with GR and a plasmid expressing luciferase under the control of an MMTV glucocorticoid responsive promoter (grey bars) and in transfected cells with luciferase but without GR (open bars).
HeLa cells were transfected with glucocorticoid receptor (GR) and MMTV-luciferase (LTR) as a glucocorticoid sensitive reporter. Induction of luciferase was measured in response to addition of 5α-tetrahydrocorticosterone (5α-THB) with and without corticosterone (B). Data (mean±SEM, n=6) show responses to individual steroids, then the additive responses predicted (Sum) and observed (Actual).
HeLa cells were transfected with glucocorticoid receptor (GR) and MMTV-luciferase (LTR) as a glucocorticoid sensitive reporter. Induction of luciferase was measured in response to addition of 1 micromol/l concentrations of corticosterone (B), cortisol (F), 5alpha-dihydrocortisol (DHF5a) and 5alpha-tetrahydrocortisol (THF5a).

[2] = tested on: neuronal long-term potentiation; conditions: Dubrovsky et al 1987; cited from earlier work
[3] = tested on: gluconeogenic enzymes in liver; conditions: Golf et al 1984; cited from earlier work
[4] = tested on: glucocorticoid receptors (GR) in hepatocytes; assay: Binding to glucocorticoid receptor in hepatocytes (3H-dexamethasone displacement); conditions: 24° C., 1 h, compared with corticosterone (B)
Procedure: Hepatocytes were incubated at 24° C. for 1 h in the presence of ^3H-dexamethasone and increasing concentrations of dexamethasone in the concentration range 0.632 nM to 200 μM. Cells were harvested and the radioactivity bound was determined by β-scintillation counting. *=p<0.001 versus B. The results are shown in FIG. 1.

[5] = target: T2, glucocorticoid receptors (Rattus norvegicus, UniProt P06536); conditions: Carlstedt-Duke et al 1977; cited from earlier work
T2 sequence (P06536 1-795): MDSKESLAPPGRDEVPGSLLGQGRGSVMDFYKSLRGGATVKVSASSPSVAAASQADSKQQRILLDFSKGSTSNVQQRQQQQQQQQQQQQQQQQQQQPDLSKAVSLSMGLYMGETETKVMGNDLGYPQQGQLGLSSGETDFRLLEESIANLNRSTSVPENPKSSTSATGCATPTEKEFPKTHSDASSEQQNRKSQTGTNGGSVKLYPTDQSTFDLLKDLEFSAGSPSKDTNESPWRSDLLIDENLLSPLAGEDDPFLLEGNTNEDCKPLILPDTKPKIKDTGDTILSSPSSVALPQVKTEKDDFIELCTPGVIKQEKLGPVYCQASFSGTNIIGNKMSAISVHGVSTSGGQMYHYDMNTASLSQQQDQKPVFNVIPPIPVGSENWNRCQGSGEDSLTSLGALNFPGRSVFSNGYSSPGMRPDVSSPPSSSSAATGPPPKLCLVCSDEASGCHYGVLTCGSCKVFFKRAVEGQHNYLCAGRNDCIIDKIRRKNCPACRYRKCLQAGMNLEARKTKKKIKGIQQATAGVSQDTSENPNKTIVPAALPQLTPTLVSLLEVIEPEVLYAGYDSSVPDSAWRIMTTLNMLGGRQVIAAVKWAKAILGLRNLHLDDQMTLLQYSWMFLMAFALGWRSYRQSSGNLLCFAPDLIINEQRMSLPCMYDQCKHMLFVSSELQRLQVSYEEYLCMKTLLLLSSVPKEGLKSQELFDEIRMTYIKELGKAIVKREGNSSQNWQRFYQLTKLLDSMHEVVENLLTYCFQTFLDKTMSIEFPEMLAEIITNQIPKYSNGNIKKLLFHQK

[6] = tested on: mouse aortic ring; assay: Angiogenesis bioassay, aortic ring embedded in matrigel; assay type: cell-based; conditions: 7 days; for number of new vessels forming (angiogenesis): B 600 nmol/l, 5alpha-THB 1000 nmol/l; for angiogenesis effect in presence of RU486: plus GR antagonist RU486
Procedure: In this bioassay, the number of new vessels forming is measured over 7 days in a mouse aortic ring embedded in matrigel.

[7] = tested on: ACTH levels; assay: ACTH suppression in adrenalectomised rats; assay type: in vivo, Male lean Zucker rats; conditions: 5 mg/kg intraperitoneal, 2 hours after injection, immunoassay
Procedure: Male lean Zucker rats aged ˜9 weeks were adrenalectomised. 3 weeks later, samples were obtained by tail tipping before and for 3 hours after intraperitoneal injection of either vehicle, corticosterone (B, 5 mg/kg body weight) or 5alpha-tetrahydrocorticosterone (THB5a, 5 mg/kg body weight). […] This is consistent with activation of glucocorticoid receptors at sites responsible for feedback suppression of the hypothalamic-pituitary-adrenal axis (principally pituitary, hypothalamus and hippocampus).

[8] = tested on: tyrosine amino transferase (TAT) mRNA in H4iiE cells; assay: Induction of tyrosine amino transferase (TAT) mRNA in H4iiE cells (Northern blot); assay type: cell-based; conditions: 1 micromol/l; for Induction of TAT mRNA: Northern blot corrected for U1; for Induction of TAT mRNA in presence of RU486: plus GR antagonist RU486
Procedure: Induction of the glucocorticoid-responsive enzyme tyrosine amino transferase (TAT) mRNA was measured by Northern blot in H4iiE cells incubated in the presence of corticosterone (B, 1 micromol/l) or 5α-tetrahydrocorticosterone (5α-THB, 1 micromol/l) or vehicle.

[9] = HeLa cells, GR and MMTV-luciferase
[10] = Hela cells transfected with GR and GRE/MMTV-luciferase, n=3

Row | Induction of luciferase (GR activation), Example 5 [1, 9] | luciferase induction in response to activation of GR [1] | Compound | binding affinity for glucocorticoid receptors (GR) [4] | number of new vessels forming (angiogenesis) [6] | angiogenesis effect in presence of RU486 [6] | Fold induction of luciferase activity as a consequence of GR activation (dose response) [1, 10] | luciferase induction in cells without GR [1] | ACTH levels compared with vehicle [7] | Induction of TAT mRNA [8] | Induction of TAT mRNA in presence of RU486 [8] | other results
1 | induced significant GR activation |  | C[C@]12CCC(=O)C[C@@H]1CC[C@@H]1[C@@H]2[C@@H](O)C[C@@]2(C)[C@H]1CC[C@]2(O)C(=O)CO [5alpha-dihydrocortisol] |  |  |  |  |  |  |  |  | 
2 | induced significant GR activation |  | C[C@]12CC[C@@H](O)C[C@@H]1CC[C@@H]1[C@@H]2[C@@H](O)C[C@@]2(C)[C@H]1CC[C@]2(O)C(=O)CO [5alpha-tetrahydrocortisol] |  |  |  |  |  |  |  |  | 
3 |  |  | C[C@]12CCC(=O)C[C@@H]1CC[C@@H]1[C@@H]2[C@@H](O)C[C@]2(C)[C@@H](C(=O)CO)CC[C@@H]12 [5α-dihydrocorticosterone] | lower binding affinities |  |  |  |  |  |  |  | effect on neuronal long-term potentiation [2]: inhibition of neuronal long-term potentiation; activity of gluconeogenic enzymes in liver [3]: lowering activity of gluconeogenic enzymes in liver; binding to glucocorticoid receptors, judged by displacement of bound dexamethasone [5]: does not bind to glucocorticoid receptors
4 |  | activated GR | C[C@]12CC[C@@H](O)C[C@@H]1CC[C@@H]1[C@@H]2[C@@H](O)C[C@]2(C)[C@@H](C(=O)CO)CC[C@@H]12 [5α-tetrahydrocorticosterone] | equivalent binding affinity | prevents angiogenesis | also blocked by RU486 | activate a glucocorticoid receptor-dependent response; also recorded: lesser effect than corticosterone | abolished in the absence of transfected receptor | significantly suppressed ACTH levels | induced TAT mRNA transcription | blocked | agonist type at GR (observed versus predicted additive luciferase response) ([1]; HeLa cells, GR and MMTV-luciferase, with and without corticosterone, n=6): full rather than partial agonist of GR; Fold induction of luciferase activity as a consequence of GR activation (comparative potency) ([1]; Hela cells transfected with GR and GRE/MMTV-luciferase, all steroids at 1 μM, n=3): more potent than 5α-dihydrocorticosterone
5 | induced significant GR activation | activated GR | C[C@]12C[C@H](O)[C@H]3[C@@H](CCC4=CC(=O)CC[C@@]43C)[C@@H]1CC[C@@H]2C(=O)CO [corticosterone, reference compound] |  | inhibits angiogenesis | blocked | activate a glucocorticoid receptor-dependent response | abolished in the absence of transfected receptor | significantly suppressed ACTH levels | induced TAT mRNA transcription | blocked | 

Row | Compound | Induction of luciferase (GR activation), Example 5 [1, 9] | luciferase induction in response to activation of GR [1] | binding affinity for glucocorticoid receptors (GR) [4] | number of new vessels forming (angiogenesis) [6] | angiogenesis effect in presence of RU486 [6] | Fold induction of luciferase activity as a consequence of GR activation (dose response) [1, 10] | luciferase induction in cells without GR [1] | ACTH levels compared with vehicle [7] | Induction of TAT mRNA [8] | Induction of TAT mRNA in presence of RU486 [8] | other results
6 | C[C@]12CCC(=O)C=C1CC[C@@H]1[C@@H]2[C@@H](O)C[C@@]2(C)[C@H]1CC[C@]2(O)C(=O)CO [cortisol, reference compound] | induced significant GR activation |  |  |  |  |  |  |  |  |  | 
